Results from US20060084577A1, “Formulation and application of Indole-Derivatives for avoiding fruit and vegetable cracking” (priority 2004, published 2006).

Test system: sweet cherries, 'Schneiders' variety
Test: Field trial of cracking of sweet cherries after application of Tryptophane on cherry trees
Format: in vivo, Prunus avium L.
Settings: for Number of Damaged Fruits / Percentage of Damaged Fruits: 20 and 29 Jun. 2002, 300 cherries sampled at harvest, evaluated Jul. 7, 2002 after heavy rainfall
Method: The following Experiments describe the results of field trials, showing the reducing effect on the cracking of cherries by applying Tryptophane on cherry trees. The influence of the application of the anti-cracking formulation of the present invention on cracking of sweet cherries, was tested on the commercially available ‘Schneiders’ variety of sweet cherry in Belgium during the 2002 growing season. The plant density was approximately 1,646 stems per acre (666 stems/hectare or “ha”). Two different amounts of Tryptophane were applied on the cherry tries and compared with an untreated control. • Experiment 1: Control Group (No treatment with the anti-cracking formulation.) • Experiment 2: 0.0223 lb/acre (25 g/ha) Tryptophane, on 20 Jun. 2002, and 0.0223 lb/acre (25 g/ha) Tryptophane, on 29 Jun. 2002. • Experiment 3: 0.0446 lb/acre (50 g/ha) Tryptophane, on 20 Jun. 2002, and 0.0446 lb/acre (50 g/ha) Tryptophane, on 29 Jun. 2002.
On Jun. 20, 2002, the plants of Experiment 1 and Experiment 2, as listed above, were treated in the evening, under sunny conditions, 71.6° F. (22° C.), and little wind. The cherries began to ripen. On Jun. 29, 2002, the plants of Experiment 1 and Experiment 2 were again treated in the evening, at sunny growth conditions, under slightly cloudy skies, 68° F. (20° C.), and moderate wind. The ripening of the cherries was fully underway.
An evaluation of the cherries in the above Experiments were made on Jul. 7, 2002, after heavy rainfall. For the Experiment's Results, as listed in TABLE 1, below, 300 cherries were randomly sampled at harvest, from which the number of intact and damaged cherries was determined.

[1] = 2* 0.0223 lb/acre (25 g/ha) Tryptophane
[2] = 2*0.0446 lb/acre (50 g/ha) Tryptophane

Q: Which “Number of Damaged Fruits” value [1] does the source give for `N[C@@H](Cc1c[nH]c2ccccc12)C(=O)O` [Tryptophane] here?
A: The value was 78.

Q: And the “Percentage of Damaged Fruits” value [1]?
A: Its value is 26%.

Q: And the “Number of Damaged Fruits” value [2]?
A: Its value is 42.

Q: What about the “Percentage of Damaged Fruits” value [2] of the same molecule?
A: Its value is 14%.

Q: What about the “reduction of the damage to the cherries” value (double application of 0.0446 lbs per acre (50 g per hectare), versus untreated control) of the same molecule?
A: Its value is “approximately 50%”.
